Data reported in US10428080B2, “TBK/IKK inhibitor compounds and uses thereof” (Merck Patent GmbH, priority 2015, dated 2019).

Columns and labels:
[1] = test system: phosphorylation of the IRF-3 protein in MDA-MB-468 cells; assay: pIRF3 immunocytochemistry cell based assay; conditions: Homo sapiens; MDA-MB-468 cells, Poly(I:C) stimulation; read-out: pIRF3 IC50
Method in brief: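 After 2 h stimulation with Poly(I:C) (10 ug/ml), following 1 h compound pre-treatment (10-point, 3-fold dilution, top 10 uM), MDA-MB-468 cells were fixed and stained with anti-pIRF3 antibody. pIRF3 fluorescence was normalized to PI staining or cell count on an Acumen cytometer. IC50 curves were derived from this.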

IKKε = molecular target: T1, IKKε (Homo sapiens, UniProt Q14164); assay: IKKe Biochemical Assay; conditions: read-out: IKKε IC50
T1 sequence (Q14164 1-716): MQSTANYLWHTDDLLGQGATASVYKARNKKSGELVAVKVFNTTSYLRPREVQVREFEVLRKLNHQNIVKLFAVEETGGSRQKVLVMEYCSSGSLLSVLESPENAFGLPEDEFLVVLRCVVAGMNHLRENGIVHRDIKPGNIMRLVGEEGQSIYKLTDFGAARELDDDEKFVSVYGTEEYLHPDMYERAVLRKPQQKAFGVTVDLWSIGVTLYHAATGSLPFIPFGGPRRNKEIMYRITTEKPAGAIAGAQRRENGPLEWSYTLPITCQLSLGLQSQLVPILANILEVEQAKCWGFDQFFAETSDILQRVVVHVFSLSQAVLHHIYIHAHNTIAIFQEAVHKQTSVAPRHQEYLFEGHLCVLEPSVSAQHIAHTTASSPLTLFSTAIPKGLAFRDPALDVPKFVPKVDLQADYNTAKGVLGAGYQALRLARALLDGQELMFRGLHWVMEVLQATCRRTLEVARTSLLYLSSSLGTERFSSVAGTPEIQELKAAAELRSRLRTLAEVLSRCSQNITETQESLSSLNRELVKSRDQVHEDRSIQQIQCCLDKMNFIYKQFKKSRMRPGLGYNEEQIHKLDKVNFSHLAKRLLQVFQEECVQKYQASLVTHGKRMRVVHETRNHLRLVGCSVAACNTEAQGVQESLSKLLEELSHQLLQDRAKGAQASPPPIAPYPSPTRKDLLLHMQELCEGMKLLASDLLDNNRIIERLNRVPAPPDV
Method in brief: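 Activity was measured as mobility-shift separation of phosphorylated from unphosphorylated substrate on a LabChip EZ Reader. Compound was titrated from 30 uM final in 10 points, 1:4 steps, with 1% DMSO, and enzyme plus substrate reacted 90 min at 25° C before stop buffer. Control wells held 10 uM staurosporine.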

TBK1 = molecular target: T2, TBK1 (Homo sapiens, UniProt Q9UHD2); assay: TBK Biochemical Assay; conditions: read-out: TBK1 IC50
T2 sequence (Q9UHD2 1-729): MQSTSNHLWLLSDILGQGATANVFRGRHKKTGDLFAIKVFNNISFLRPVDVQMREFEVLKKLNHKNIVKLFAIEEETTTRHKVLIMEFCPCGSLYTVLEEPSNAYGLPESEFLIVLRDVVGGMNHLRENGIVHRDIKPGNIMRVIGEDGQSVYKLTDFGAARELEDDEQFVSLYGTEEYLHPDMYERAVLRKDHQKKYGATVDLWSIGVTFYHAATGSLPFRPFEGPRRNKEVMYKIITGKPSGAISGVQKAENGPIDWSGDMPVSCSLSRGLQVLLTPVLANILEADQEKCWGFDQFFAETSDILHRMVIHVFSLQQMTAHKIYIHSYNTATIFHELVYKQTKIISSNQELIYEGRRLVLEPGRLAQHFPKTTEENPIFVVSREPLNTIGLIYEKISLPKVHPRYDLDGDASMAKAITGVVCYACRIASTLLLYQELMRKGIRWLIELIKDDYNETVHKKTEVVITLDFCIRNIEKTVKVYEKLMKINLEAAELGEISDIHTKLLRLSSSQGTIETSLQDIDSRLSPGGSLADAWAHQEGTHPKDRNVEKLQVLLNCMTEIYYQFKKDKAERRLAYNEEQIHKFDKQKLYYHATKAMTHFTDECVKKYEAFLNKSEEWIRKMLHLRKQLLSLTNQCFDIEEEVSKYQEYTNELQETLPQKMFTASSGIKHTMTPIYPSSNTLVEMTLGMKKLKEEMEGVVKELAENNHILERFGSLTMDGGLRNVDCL
Method in brief: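 Caliper LabChip mobility-shift readout of substrate and product after 90 min of TBK1 reaction at 25° C and stop-buffer addition. Compounds tested in 1:4 serial dilution over 10 points from 30 uM final at 1% DMSO; staurosporine 10 uM final defines full inhibition.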

Row | IC50 [1] [nM] | IC50 (IKKε) [nM] | IC50 (TBK1) [nM] | Structure (SMILES)
1 | 100 to 1000 | < 100 | < 100 | COc1cc(C(=O)N2CC3CN(C)CC3C2)ccc1-c1cc2nccc(-c3ccc(N4CC[C@@H](F)C4)c(C#N)c3)c2o1 (stereo partly drawn) [Compound 501]
2 | 100 to 1000 | < 100 | < 100 | COc1cc(C(=O)NC(C)(C)CN(C)C)ccc1-c1cc2nccc(-c3ccc(NC4C5COCC54)c(C#N)c3)c2o1 (stereo not drawn) [Compound 502, N-(2-dimethylamino-1,1-dimethyl-ethyl)-4-{7-[3-cyano-4-(3-oxa-bicyclo[3.1.0]hex-6-ylamino)-phenyl]-furo[3,2-b]pyridin-2-yl}-3-methoxy-benzamide]
3 | < 100 | < 100 | < 100 | COc1cc(C(=O)N2CC3CCC2CN3C)ccc1-c1cc2nccc(-c3ccc(OC4CCOCC4)c(C#N)c3)c2o1 (stereo not drawn) [Compound 503]
4 | 100 to 1000 | < 100 | < 100 | COc1cc(C(=O)NC(C)(C)CCN(C)C)ccc1-c1cc2nccc(-c3ccc(OC4CCOCC4)c(C#N)c3)c2o1 [Compound 505, 4-{7-[3-Cyano-4-(tetrahydro-pyran-4-yloxy)-phenyl]-furo[3,2-b]pyridin-2-yl}-N-(3-dimethylamino-1,1-dimethyl-propyl)-3-methoxy-benzamide]
5 | < 100 | < 100 | < 100 | COc1cc(C(=O)N2C[C@@H]3C[C@H]2CN3C)ccc1-c1cc2nccc(-c3ccc(OC4CCOCC4)c(C#N)c3)c2o1 [Compound 508]
6 | < 100 | < 100 | < 100 | COc1cc(C(=O)N2CC3CCC2CN3C)ccc1-c1cc2nccc(-c3ccc(NC4CCOCC4)c(C#N)c3)c2o1 (stereo not drawn) [Compound 510]
7 | < 100 | < 100 | < 100 | COc1cc(C(=O)NC(C)(C)CCN(C)C)ccc1-c1cc2nccc(-c3ccc(NC4CCOCC4)c(C#N)c3)c2o1 [Compound 514, 4-{7-[3-Cyano-4-(tetrahydro-pyran-4-ylamino)-phenyl]-furo[3,2-b]pyridin-2-yl}-N-(3-dimethylamino-1,1-dimethyl-propyl)-3-methoxy-benzamide]
8 | < 100 | < 100 | < 100 | COc1cc(C(=O)NCC(C)(C)CN(C)C)ccc1-c1cc2nccc(-c3ccc(NC4CCOCC4)c(C#N)c3)c2o1 [Compound 516, 4-{7-[3-Cyano-4-(tetrahydro-pyran-4-ylamino)-phenyl]-furo[3,2-b]pyridin-2-yl}-N-(3-dimethylamino-2,2-dimethyl-propyl)-3-methoxy-benzamide]
9 | < 100 | < 100 | < 100 | COc1cc(C(=O)N2C[C@H]3C[C@@H]2CN3C)ccc1-c1cc2nccc(-c3ccc(NC4CCOCC4)c(C#N)c3)c2o1 [Compound 517]
10 | < 100 | < 100 | < 100 | COc1cc(C(=O)N(C)C)ccc1-c1cc2nccc(-c3ccc(NC4CCNC4)c(C#N)c3)c2o1 (stereo not drawn) [Compound 521]

More lines, now with the values behind:

Row | Structure (SMILES) | IC50 [1] [nM] | IC50 (IKKε) [nM] | IC50 (TBK1) [nM]
11 | COc1cc(C(=O)N2CC3COCC3C2)ccc1-c1cc2nccc(-c3ccc(OC4CCOCC4)c(C#N)c3)c2o1 (stereo not drawn) [Compound 504] | 100 to 1000 | < 100 | < 100
12 | COc1cc(C(=O)NCC(C)(C)CN(C)C)ccc1-c1cc2nccc(-c3ccc(OC4CCOCC4)c(C#N)c3)c2o1 [Compound 506, 4-{7-[3-Cyano-4-(tetrahydro-pyran-4-yloxy)-phenyl]-furo[3,2-b]pyridin-2-yl}-N-(3-dimethylamino-2,2-dimethyl-propyl)-3-methoxy-benzamide] | 100 to 1000 | < 100 | < 100
13 | COc1cc(C(=O)N2C3CCCC2CC3)ccc1-c1cc2nccc(-c3ccc(OC4CCOCC4)c(C#N)c3)c2o1 [Compound 509] | 100 to 1000 | < 100 | < 100
14 | COc1cc(C(=O)N2CC3COCC3C2)ccc1-c1cc2nccc(-c3ccc(NC4CCOCC4)c(C#N)c3)c2o1 (stereo not drawn) [Compound 513] | < 100 | < 100 | < 100
15 | COc1cc(C(=O)N2C[C@@H]3C[C@H]2CN3C)ccc1-c1cc2nccc(-c3ccc(NC4CCOCC4)c(C#N)c3)c2o1 [Compound 515] | < 100 | < 100 | < 100
16 | COc1cc(C(=O)N2C3CCCC2CC3)ccc1-c1cc2nccc(-c3ccc(NC4CCOCC4)c(C#N)c3)c2o1 [Compound 519] | 100 to 1000 | < 100 | < 100
